Measurements published in the NIST ThermoML archive (doi:10.1016/j.jct.2005.10.019).

Experiments:
[1] = 298.15 K; 101.33 kPa; Liquid
[2] = excess molar enthalpy (molar enthalpy of mixing); xn = mol fraction of the nth substance listed; details: 298.15 K, 101 kPa, Liquid

C[C@H](N)c1ccccc1 [(S)-(-)-αmethylbenzylamine]
Details	mass density [kg/m3]
[1]	965.49

C[C@@H](NCc1ccccc1)c1ccccc1 [(R)-(+)-N-benzyl-1-phenylethylamine]
Details	mass density [kg/m3]
[1]	1007.7

C[C@@H]1COC(=O)O1 [(R)-4-methyl-1,3-dioxolan-2-one] + C[C@H]1COC(=O)O1
[2]
Details	excess molar enthalpy [kJ/mol]
x2 = 0.02206	-0.000706
x2 = 0.04317	-0.00137
x2 = 0.06338	-0.00201
x2 = 0.06919	-0.00192
x2 = 0.08276	-0.00258
x2 = 0.1014	-0.00307
x2 = 0.1192	-0.00355
x2 = 0.1294	-0.0036
x2 = 0.1364	-0.00399
x2 = 0.1529	-0.00439
x2 = 0.1688	-0.00476
x2 = 0.1823	-0.0048
x2 = 0.1841	-0.00509
x2 = 0.1988	-0.00541
x2 = 0.213	-0.00569
x2 = 0.2268	-0.00595
x2 = 0.2292	-0.00597
x2 = 0.2709	-0.0068
x2 = 0.3084	-0.00709
x2 = 0.3422	-0.00743
x2 = 0.3673	-0.00776
x2 = 0.3729	-0.0078
x2 = 0.3988	-0.008
x2 = 0.4008	-0.00799
x2 = 0.4264	-0.00819
x2 = 0.4363	-0.00825
x2 = 0.4366	-0.00829
x2 = 0.4627	-0.00851
x2 = 0.4815	-0.0084
x2 = 0.4921	-0.00856
x2 = 0.5254	-0.00856
x2 = 0.5372	-0.00832
x2 = 0.5551	-0.00837
x2 = 0.5959	-0.00823
x2 = 0.6186	-0.00814
x2 = 0.6431	-0.00802
x2 = 0.6596	-0.0077
x2 = 0.6697	-0.00771
x2 = 0.6985	-0.00735
x2 = 0.699	-0.0071
x2 = 0.7209	-0.00694
x2 = 0.73	-0.00679
x2 = 0.7641	-0.00612
x2 = 0.7644	-0.00632
x2 = 0.7782	-0.00587
x2 = 0.7929	-0.00558
x2 = 0.7949	-0.00558
x2 = 0.7997	-0.00541
x2 = 0.8022	-0.00553
x2 = 0.8081	-0.00527
x2 = 0.8122	-0.0052
x2 = 0.8228	-0.00475
x2 = 0.8239	-0.00494
x2 = 0.8252	-0.00494
x2 = 0.8385	-0.00465
x2 = 0.8404	-0.00458
x2 = 0.8439	-0.00456
x2 = 0.8522	-0.00434
x2 = 0.8575	-0.00417
x2 = 0.8665	-0.00394
x2 = 0.8753	-0.00372
x2 = 0.8812	-0.00359
x2 = 0.8857	-0.00349
x2 = 0.8902	-0.00335
x2 = 0.8939	-0.00323
x2 = 0.8964	-0.00319
x2 = 0.9121	-0.00276
x2 = 0.9133	-0.0027
x2 = 0.9285	-0.00231
x2 = 0.9335	-0.0021
x2 = 0.9419	-0.00184
x2 = 0.9454	-0.00178
x2 = 0.9547	-0.00146
x2 = 0.9629	-0.00123
x2 = 0.9768	-0.000769
x2 = 0.9811	-0.000633

C[C@@H](N)c1ccccc1 [(R)-(+)-α-methylbenzylamine]
Details	mass density [kg/m3]
[1]	965.38

COC(=O)[C@H](C)CO [(2R)-3-hydroxy-2-methyl-propanoic acid methyl ester]
Details	mass density [kg/m3]
[1]	1067.5

ClC[C@H]1CO1 [(2R)-(chloromethyl)-oxirane] + ClC[C@@H]1CO1
[2]
Details	excess molar enthalpy [kJ/mol]
x2 = 0.01821	0.000852
x2 = 0.03578	0.00166
x2 = 0.05272	0.00242
x2 = 0.05939	0.00277
x2 = 0.06908	0.0031
x2 = 0.08489	0.00373
x2 = 0.1002	0.0043
x2 = 0.1121	0.00477
x2 = 0.1149	0.00484
x2 = 0.1292	0.00536
x2 = 0.1373	0.00555
x2 = 0.1431	0.00583
x2 = 0.1565	0.00626
x2 = 0.1593	0.0063
x2 = 0.1695	0.00667
x2 = 0.1706	0.00679
x2 = 0.1821	0.00707
x2 = 0.1943	0.00744
x2 = 0.2016	0.00758
x2 = 0.2399	0.00848
x2 = 0.2414	0.00873
x2 = 0.2748	0.00949
x2 = 0.2915	0.01
x2 = 0.3065	0.00986
x2 = 0.3231	0.0105
x2 = 0.3356	0.0104
x2 = 0.3624	0.011
x2 = 0.3693	0.0111
x2 = 0.3816	0.0115
x2 = 0.387	0.0113
x2 = 0.3889	0.0114
x2 = 0.4009	0.0115
x2 = 0.4099	0.0117
x2 = 0.417	0.0115
x2 = 0.4311	0.0117
x2 = 0.4384	0.0118
x2 = 0.4431	0.0118
x2 = 0.4498	0.012
x2 = 0.4508	0.0116
x2 = 0.4514	0.0119
x2 = 0.4837	0.012
x2 = 0.4882	0.0121
x2 = 0.4884	0.012
x2 = 0.5071	0.0122
x2 = 0.5269	0.0119
x2 = 0.5337	0.012
x2 = 0.5394	0.0119
x2 = 0.5525	0.012
x2 = 0.5886	0.0117
x2 = 0.5902	0.0118
x2 = 0.6096	0.0114
x2 = 0.6221	0.0114
x2 = 0.6561	0.0109
x2 = 0.7008	0.01
x2 = 0.741	0.00924
x2 = 0.7793	0.0082
x2 = 0.7927	0.00781
x2 = 0.8067	0.00715
x2 = 0.8211	0.00675
x2 = 0.8241	0.0069
x2 = 0.8361	0.0063
x2 = 0.8513	0.00601
x2 = 0.8516	0.00572
x2 = 0.8677	0.00541
x2 = 0.8844	0.00473
x2 = 0.9018	0.004
x2 = 0.9198	0.00331
x2 = 0.9387	0.0026
x2 = 0.9583	0.00177
x2 = 0.9787	0.000913
